Measured values published in patent US12600710B2, “Beta-catenin and b-cell lymphoma 9 (BCL9) inhibitors” (H. LEE MOFFITT CANCER CENTER AND RESEARCH INSTITUTE, INC., priority 2018, dated 2026).
Where a name gives a salt, the structure may show the parent alone. Read-outs that look alike come from different tables or passages of the source.

Molecular target: T1, β-catenin/BCL9 PPI (Homo sapiens, UniProt P35222)
T1 construct: Wild-type full-length β-catenin were cloned into a pET-28b vector carrying a C-terminal 6×histidine; made in house; host or cells: Escherichia coli BL21 DE3 (β-catenin); BCL9 peptide chemically synthesized
T1 sequence (P35222 1-781): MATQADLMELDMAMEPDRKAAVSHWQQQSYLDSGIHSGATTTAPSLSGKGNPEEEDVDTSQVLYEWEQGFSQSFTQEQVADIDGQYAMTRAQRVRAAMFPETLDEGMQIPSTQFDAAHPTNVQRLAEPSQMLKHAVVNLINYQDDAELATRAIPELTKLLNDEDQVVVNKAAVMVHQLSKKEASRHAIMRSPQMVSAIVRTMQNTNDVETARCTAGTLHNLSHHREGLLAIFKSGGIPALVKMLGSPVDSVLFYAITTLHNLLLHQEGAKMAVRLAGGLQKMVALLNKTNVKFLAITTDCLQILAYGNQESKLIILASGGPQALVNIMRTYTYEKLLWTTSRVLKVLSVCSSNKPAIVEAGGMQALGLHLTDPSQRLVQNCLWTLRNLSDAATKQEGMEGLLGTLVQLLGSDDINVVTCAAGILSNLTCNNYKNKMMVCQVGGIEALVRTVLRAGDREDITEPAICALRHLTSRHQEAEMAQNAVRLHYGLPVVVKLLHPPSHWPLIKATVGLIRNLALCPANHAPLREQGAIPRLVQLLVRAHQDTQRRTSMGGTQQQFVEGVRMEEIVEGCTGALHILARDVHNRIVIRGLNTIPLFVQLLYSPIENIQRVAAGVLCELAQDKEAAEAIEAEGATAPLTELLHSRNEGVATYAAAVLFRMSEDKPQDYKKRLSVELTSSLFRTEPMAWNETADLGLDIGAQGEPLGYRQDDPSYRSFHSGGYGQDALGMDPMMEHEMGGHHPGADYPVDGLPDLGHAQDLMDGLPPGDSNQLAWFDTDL
Experiment: AlphaScreen competitive inhibition assay of the β-catenin/BCL9 PPI
Type: binding
Details: Example 1 compounds, mean ± SD, triplicate, Ki derived from IC50 (Nikolovska-Coleska method)
Experimental: AlphaScreen competitive inhibition assays. For the competitive inhibition assays of the β-catenin/BCL9 PPI, the negative control (equivalent to 0% inhibition) refers to 5.0 nM of biotinylated BCL9, 40 nM of His6-tagged β-catenin, and 10 μg/mL of donor and acceptor beads in a final volume of 25 μL assay buffer, but no tested inhibitor present. The positive control (equivalent to 100% inhibition) refers to 5.0 nM of biotinylated BCL9 and 10 μg/mL of donor and acceptor beads in a final volume of 25 μL assay buffer.
For the β-catenin/BCL9 assay, 5 nM of biotinylated BCL9 and 40 nM of His6-tagged β-catenin were incubated in assay buffer at 4° C. for 30 min. Different concentrations of the tested inhibitor were added and incubated in 20 μL assay buffer at 4° C. for another 1 h. All of the above assay plates were covered and gently mixed on an orbital shaker. The donor and acceptor beads were then added to the plates to a final concentration of 10 μg/mL in 25 μL assay buffer. The mixture was incubated for 1 h at 4° C. before detection. The IC50 value was determined by nonlinear least-square analysis of GraphPad Prism 5.0. The Ki values were derived from the IC50 values using a method reported by Nikolovska-Coleska et al (Nikolovska-Coleska, Z.; Wang, R.; Fang, X.; Pan, H.; Tomita, Y.; Li, P.; Roller, P. P.; Krajewski, K.; Saito, N. G.; Stuckey, J. A.; Wang, S. Development and optimization of a binding assay for the XIAP BIR3 domain using fluorescence polarization. Anal. Biochem. 2004, 332, 261-273). The assays were conducted under the conditions required by Nikolovska-Coleska et al.'s equation for determining the Ki values. All of the experiments were performed in triplicate. The results were expressed as mean±standard deviation.

[1] = experiment 3, read-out: Ki (μM ± SD) experiment 3
[2] = experiment 4, read-out: Ki (μM ± SD) experiment 4
[3] = experiment 1, read-out: Ki (μM ± SD) experiment 1
[4] = experiment 2, read-out: Ki (μM ± SD) experiment 2

| Ki [1] [µM] | Ki [2] [µM] | Ki [3] [µM] | Ki [4] [µM] | SMILES |
| --- | --- | --- | --- | --- |
| 130 ± 22 | 580 ± 83 | – | – | CC(=O)Nc1cc(F)cc(C(=O)N2CCN(C(=O)c3ccc(O[C@H]4CCNC4)c(C4CCCCC4)c3)C(C(=O)Nc3ccccc3)C2)c1 (stereo partly drawn) [Compound 27, 4-(3-Acetamido-5-fluorobenzoyl)-1-(3-cyclohexyl-4-(((S)-pyrrolidin-3-yl)oxy)benzoyl)-N-phenylpiperazine-2-carboxamide trifluoroacetate] |
| 660 ± 110 | 600 ± 89 | – | – | CC(=O)Nc1cc(F)cc(C(=O)N2CCN(C(=O)c3ccc(O[C@H]4CCNC4)c(C4CCCCC4)c3)C(C(=O)NCc3ccccc3)C2)c1 (stereo partly drawn) [Compound 28, 4-(3-Acetamido-5-fluorobenzoyl)-N-benzyl-1-(3-cyclohexyl-4-(((S)-pyrrolidin-3-yl)oxy)benzoyl) piperazine-2-carboxamide trifluoroacetate] |
| 560 ± 120 | 740 ± 150 | – | – | CC(=O)Nc1cc(F)cc(C(=O)N2CCN(C(=O)c3ccc(O[C@H]4CCNC4)c(C4CCCCC4)c3)C(C(=O)N(C)Cc3ccccc3)C2)c1 (stereo partly drawn) [Compound 29, 4-(3-Acetamido-5-fluorobenzoyl)-N-benzyl-1-(3-cyclohexyl-4-(((S)-pyrrolidin-3-yl)oxy)benzoyl)-N-methylpiperazine-2-carboxamide trifluoroacetate] |
| – | – | 110 ± 15 | 560 ± 71 | NCc1cn(-c2cc(F)cc(C(=O)N3CCN(C(=O)c4ccc(O[C@H]5CCNC5)c(C5CCCCC5)c4)CC3)c2)nn1 [Compound 30, (S)-(4-(3-(4-(aminomethyl)-1H-1,2,3-triazol-1-yl)-5-fluorobenzoyl)piperazin-1-yl) (3-cyclohexyl-4-(pyrrolidin-3-yloxy)phenyl) methanone ditrifluoroacetate] |
| – | – | > 350 | 610 ± 91 | NCc1cn(-c2cc(F)cc(C(=O)N3CCN(C(=O)c4ccc(O[C@H]5CCNC5)c(C5CCC(C(F)(F)F)CC5)c4)CC3)c2)nn1 (stereo partly drawn) [Compound 31, (S)-(4-(3-(4-(aminomethyl)-1H-1,2,3-triazol-1-yl)-5-fluorobenzoyl)piperazin-1-yl) (4-(pyrrolidin-3-yloxy)-3-(4-(trifluoromethyl)cyclohexyl)phenyl) methanone ditrifluoroacetate] |
| > 1000 | – | – | – | CNCc1cn(-c2cc(F)cc(C(=O)N3CCN(C(=O)c4ccc(O[C@H]5CCNC5)c(C5CCCCC5)c4)CC3)c2)nn1 [Compound 32, (S)-(4-(3-Cyclohexyl-4-(pyrrolidin-3-yloxy)benzoyl)piperazin-1-yl) (3-fluoro-5-(4-((methylamino)methyl)-1H-1,2,3-triazol-1-yl)phenyl) methanone dihydrochloride] |
